Entries after “also recorded” stand apart in the source; their conditions may differ.
What was measured:
[1] = test system: human aortic SMCs; assay: SMC proliferation by BrdU uptake; type: cell-based
Description: (§1) SMC Culture and Adenovirus Infection. Murine aortic SMCs were isolated from the aortas of 8-12 week old wild type and PKG1^RQ/+ mice and were cultured in Smooth Muscle Basal Media (SmBM) containing 20% FBS, pyruvate, HEPES, L-glutamine, penicillin/streptomycin and growth factors (SmBM Bullet kit; CC-4149 from Lonza), as previously described.^69 Two independent cell isolates from wild type and PKG1^RQ mice were used at passage one. Human primary aortic SMCs were purchased from Lifeline Cell Technology (Frederick, MD, FC-0015) and cultured in VascuLife Basal Medium supplemented with recombinant epidermal growth factor, insulin, and fibroblast growth factor-b, ascorbic acid, L-glutamine, 20% FBS, gentamycin, and amphotericin (Vasculife SMC LifeFactors kit; LS-1040 from Lifeline Technologies). Human SMCs were used at passages 3-6. Adenovirus was generated using the ViraPower Adenoviral Expression System (Thermo Fisher).^67 Human SMCs were infected with virus expressing wild type or mutant human PKG1α (containing the R177Q mutation); the MOI was 3-10 and titrated to produce wild type and mutant kinase at 2-3 fold the level of endogenous PKG1 at 72 h post infection. […]
(§2) SMC Immunofluorescence Staining. […] Images were analyzed with a Keyence BZ-X700 fluorescence microscope.

[2] = test system: human aortic SMCs; assay: SMC apoptosis by cleaved caspase-3 staining; type: cell-based; conditions: human SMCs expressing PKG1^RQ
Description: as §1, §2

[3] = test system: human aortic SMCs; assay: DNA oxidation by 8-OH-deoxyguanosine immunofluorescence staining in SMCs; type: cell-based; conditions: human aortic SMCs expressing PKG1^RQ
Description: as §1, §2

[4] = test system: human aortic SMCs; assay: H2O2 production by Amplex Red in SMCs expressing PKG1^RQ; type: cell-based; conditions: human aortic SMCs infected with PKG1^RQ adenovirus
Description: as §1, with “3-6.” for “3-6. Adenovirus was generated using the ViraPower Adenoviral Expression System (Thermo Fisher).^67 Human SMCs were infected with virus expressing wild type or mutant human PKG1α (containing the R177Q mutation); the MOI was 3-10 and titrated to produce wild type and mutant kinase at 2-3 fold the level of endogenous PKG1 at 72 h post infection.”
Amplex Red and NADPH Oxidase Assays. Primary murine SMCs isolated from wild type or PKG1^RQ/+ aortas, and human SMCs infected with control, wild type, or mutant PKG1^RQ virus, were seeded at 4×10^4 cells/well in 96-well plates, and H2O2 production was measured using an Amplex Red/Hydrogen Peroxide/Peroxidase Assay Kit (Thermo Fischer Scientific). […] Fluorescence was measured every min in a BioTek Synergy 2 plate reader, using 540 nm excitation and 590 nm emission wavelengths.

[5] = biological target: T1, PKG1^RQ (Homo sapiens, UniProt Q13976, R177Q); assay: Kinase activity of purified PKG1^RQ; type: biochemical; conditions: purified enzyme
T1 construct: FLAG (N); made in house; host or cells: transiently transfected 293T cells (ATCC, CRL3216)
T1 sequence (Q13976 1-671 R177Q): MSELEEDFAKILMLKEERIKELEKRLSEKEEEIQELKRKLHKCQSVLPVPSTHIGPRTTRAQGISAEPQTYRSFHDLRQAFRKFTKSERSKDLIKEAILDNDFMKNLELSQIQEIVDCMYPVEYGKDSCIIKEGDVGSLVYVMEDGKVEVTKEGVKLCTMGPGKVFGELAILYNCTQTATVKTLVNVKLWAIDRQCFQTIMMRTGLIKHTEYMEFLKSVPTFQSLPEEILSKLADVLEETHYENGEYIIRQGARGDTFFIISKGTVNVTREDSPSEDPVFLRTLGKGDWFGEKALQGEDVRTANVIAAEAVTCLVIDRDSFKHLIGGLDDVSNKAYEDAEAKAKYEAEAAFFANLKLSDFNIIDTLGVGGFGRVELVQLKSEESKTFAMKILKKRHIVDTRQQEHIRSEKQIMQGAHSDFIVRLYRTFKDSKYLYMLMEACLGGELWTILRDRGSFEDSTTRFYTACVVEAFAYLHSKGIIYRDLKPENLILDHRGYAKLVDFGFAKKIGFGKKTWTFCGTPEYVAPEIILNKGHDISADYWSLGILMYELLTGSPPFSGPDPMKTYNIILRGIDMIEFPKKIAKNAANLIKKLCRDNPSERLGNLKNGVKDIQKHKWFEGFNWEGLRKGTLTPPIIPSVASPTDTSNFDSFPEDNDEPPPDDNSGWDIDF
Description: PKG1 Purification and Activity Assays. Wild type and mutant PKG1^RQ were expressed with N-terminal FLAG epitope tags in transiently-transfected 293T cells (ATCC, CRL3216), purified with anti-FLAG beads and eluted with FLAG peptide, and kinase activity assays were performed.^41 Kinase activity in SMC and aortic extracts was measured using an optimized peptide in the presence of 1.25 μM protein kinase inhibitor peptide (PKI) to inhibit cAMP-dependent protein kinase.^65 Assays were performed with [γ-^32PO4]ATP (1.3 Ci/mmol; 50 μM) in the presence and absence of 3 μM cGMP, and were linear with time and protein concentration. In some assays, the PKG-specific inhibitory peptide DT2 was included at 10 μM.

[6] = test system: Prkg1^RQ/+ mice; assay: Aortic gene expression by quantitative RT-PCR after Cbi treatment; type: in vivo; conditions: 12 month-old Prkg1^RQ/+ mice, 1 mM Cbi in drinking water for 1 month
Description: (§3) Randomization and Drug Treatment of Mice. At the time of weaning, male and female litter mates were separated and randomly assigned to new cages. At the age of 6 months (aging studies) or 10-14 weeks (TAC studies), matched cages containing mice born within a three week period were randomly assigned to treatment versus vehicle groups. For aging studies, some mice received 1 mM trihistidyl-cobinamine (Cbi) in the drinking water, starting from the age of 6 months until 12 months. For gene expression studies, mice were treated with 1 mM Cbi for one month only, from 11-12 months of age. For TAC studies, some mice received 1 mg/ml N-acetylcysteine (NAC) in the drinking water starting 4 weeks before until 2 weeks after the surgery. The drugs were dissolved freshly each week and filter-sterilized; fluid intake was monitored weekly. The Cbi dose was calculated to be 50 mg/kg/d, and the NAC dose was 500 mg/kg/d. Aquohydroxyl-cobinamide was synthesized from cobalamine by removal of the 5,6-dimethyl-benzimidazol ring; trihistidyl-cobinamide was obtained by adding three molar equivalents of L-histidine to the aquohydroxyl cobinamide.^63 Purity of the drug was >95% by high-pressure liquid chromatography.
Quantitative RT-PCR. Aortas were dissected and snap-frozen as described above; they were pulverized and immersed in Trizol (Molecular Res. Center, TR118). Total RNA was isolated, reverse-transcribed using iScript cDNA synthesis kit (Bio-Rad), and PCR was performed using a MX3005P real-time PCR detection system with Brilliant II SYBR Green Mix (Agilent Technologies) as described.^67 All primers were intron-spanning (except for 18S rRNA), and were tested with serial cDNA dilutions. Relative changes in mRNA expression were analyzed using the comparative 2^−ΔΔCt method, with 18S rRNA and phosphoglycerate kinase-1 serving as internal controls.^68

[7] = test system: human aortic SMCs; assay: Western blots (VASP phosphorylation, JNK activation) and OxyBlot protein oxidation in human SMCs; type: cell-based
Description: Western Blotting. Following anesthesia with ketamine (100 mg/kg) and xylazine (10 mg/kg) by intraperitoneal injection, mice were exsanguinated and perfused with ice-cold phosphate-buffered saline (PBS) containing protease inhibitor cocktail (Calbiochem #539131). Aortas were excised, cleaned from surrounding tissue, and snap-frozen in liquid nitrogen within 15 min of euthanasia. Frozen aortas were pulverized and sonicated (3×10 sec) in ice-cold RIPA buffer (50 mM NaCl, 50 mM Tris-HCl, pH 8, 1% NP-40, 0.1% SDS, 0.5% sodium deoxycholate) supplemented with 1 mM NaF, 1 mM β-glycerolphosphate, and protease inhibitor cocktail. Western blots were developed with primary antibodies specific for PKG1 (1:1000, Cell Signaling Technology; 3248, […] (1:1000, Cell Signaling Technology; 3114), GAPDH (1:1000, Cell Signaling Technology; 2118), β-actin (1:5000, Santa Cruz Biotechnology; 47778), and JNK-phospho-Thr^183/Tyr^185 (1:1000, Cell Signaling Technology; 9251). Blots were developed and visualized with enhanced chemiluminescence using LI-COR Odyssey (with ImageStudio, V5) or with film in the linear range of exposure (with densitometry scanning using ImageJ (V1.51). Protein carbonyl groups (aldehydes and ketones) were detected using the OxyBlot™ Protein Oxidation Detection Kit (Millipore EMD; S7150). Unprocessed scans of blots are provided in the Source Data file.
SMC Culture and Adenovirus Infection. Murine aortic SMCs were isolated from the aortas of 8-12 week old wild type and PKG1^RQ/+ mice and were cultured in Smooth Muscle Basal Media (SmBM) containing 20% FBS, pyruvate, HEPES, L-glutamine, penicillin/streptomycin and growth factors (SmBM Bullet kit; CC-4149 from Lonza), as previously described.^69 Two independent cell isolates from wild type and PKG1^RQ mice were used at passage one. Human primary aortic SMCs were purchased from Lifeline Cell Technology (Frederick, MD, FC-0015) and cultured in VascuLife Basal Medium supplemented with recombinant epidermal growth factor, insulin, and fibroblast growth factor-b, ascorbic acid, L-glutamine, 20% FBS, gentamycin, and amphotericin (Vasculife SMC LifeFactors kit; LS-1040 from Lifeline Technologies). Human SMCs were used at passages 3-6. Adenovirus was generated using the ViraPower Adenoviral Expression System (Thermo Fisher).^67 Human SMCs were infected with virus expressing wild type or mutant human PKG1α (containing the R177Q mutation); the MOI was 3-10 and titrated to produce wild type and mutant kinase at 2-3 fold the level of endogenous PKG1 at 72 h post infection. […] For knock-down of NOX2 and NOX4, SMCs were infected with adenovirus expressing shNOX2 or shNOX4 oligomers (downstream of the U6 promoter) at an MOI of 100; H2O2 production and NADPH oxidase activity assays were performed 48 h later (as described below).

[8] = test system: wild type mice; assay: Cobinamide treatment: effects and toxicity in mice; type: in vivo
Description: as §3

[9] = test system: Prkg1^RQ/+ mice; assay: Aging study: cobinamide in drinking water, Prkg1^RQ/+ mice; type: in vivo
[10] = Prkg1^RQ/+ mice, 1 mM Cbi in drinking water from age 6 to 12 months
[11] = human aortic SMCs, combined with low concentrations of an NO donor

CN(C)c1cccc(-c2c3c(=O)n(-c4ccccc4Cl)[nH]c3cc(=O)n2C)c1 [GKT137831]
growth-inhibitory effect of PKG1^RQ (SMC proliferation) ([1]; human SMCs expressing PKG1^RQ, growth factor-induced proliferation): partly prevented | pro-apoptotic effect of PKG1^RQ (SMC apoptosis) [2]: partly prevented | PKG1^RQ-induced increase in DNA oxidation (pro-oxidant effect of PKG1^RQ) [3]: blocked | H2O2 production in PKG1^RQ-expressing cells [4]: reduced H2O2 production in the PKG1^RQ-expressing cells to a level found in control cells

trihistidyl-cobinamide [Cbi]
activity of purified PKG1^RQ [5]: no effect | Ctgf mRNA in aortas [6]: reduced all five transcripts | Hif1a mRNA in aortas [6]: reaching levels similar to those observed in wild type mice | Nox4 mRNA in aortas [6]: reduced all five transcripts | Tgfb1 mRNA in aortas [6]: reduced all five transcripts | Vegfa mRNA in aortas [6]: reaching levels similar to those observed in wild type mice | H2O2-induced JNK activation ([7]; human SMCs): decreased | H2O2-induced protein oxidation ([7]; human SMCs): decreased | protein oxidation in PKG1^RQ-expressing cells ([7]; human SMCs expressing PKG1^RQ): reduced protein oxidation | serum homocysteine concentration ([8]; Cbi-treated mice): normal | serum methylmalonic acid concentration ([8]; Cbi-treated mice): normal | vitamin B12-dependent functions ([8]; Cbi-treated mice): did not affect | toxicity ([8]; judged by normal weight, clinical appearance, blood counts, and liver and kidney function tests): no discernible toxicity | effects in wild type mice ([8]; wild type mice, Cbi in drinking water): no significant effects | PKG activity in aortic extracts after treatment of the mice ([9]; Cbi-treated mice): nor did Cbi treatment of the mice affect PKG activity | prevention of age-related aortic pathology, including aortic dilation ([9]; Prkg1^RQ/+ mice): highly effective | SMC apoptosis in aortas [9, 10]: reduced oxidative stress markers and SMC apoptosis in aortas of Prkg1^RQ/+ mice to values in WT mice | SMC loss [9, 10]: completely prevented | elastin fiber breaks [9, 10]: reduced elastin fiber breaks and media collagen content to levels in WT mice | media collagen content [9, 10]: reduced elastin fiber breaks and media collagen content to levels in WT mice | oxidative stress markers in aortas [9, 10]: reduced oxidative stress markers and SMC apoptosis in aortas of Prkg1^RQ/+ mice to values in WT mice; also recorded: reduced oxidative stress markers in the aorta | aortic dilation ([9]; Prkg1^RQ/+ mice, 1 mM Cbi in drinking water from age 6 to 12 months, ultrasound): completely prevented | amount of Cys^43-oxidized, cross-linked PKG1 dimer in aortas ([9]; wild type and Prkg1^RQ/+ mice): no effect

CCCc1nn(C)c2c(=O)[nH]c(-c3cc(S(=O)(=O)N4CCN(C)CC4)ccc3OCC)nc12 [sildenafil, reference compound]
SMC proliferation ([1]; human aortic SMCs, drug combination of sildenafil and NO donor): inhibited SMC proliferation | JNK activation [7, 11]: induced JNK activation | VASP phosphorylation [7, 11]: increased VASP phosphorylation

From patent US12409181B2, “Treatment for aortic aneurysms” (THE REGENTS OF THE UNIVERSITY OF CALIFORNIA, priority 2019, dated 2025)
